In EP3468532B1, “DISPENSING DEVICE AND PHARMACEUTICAL COMPOSITION FOR THE TREATMENT OF RHINITIS” (Glenmark Specialty S.A., priority 2017, dated 2019):
Like-named read-outs stand apart in the source and are kept apart here. One block for each molecule: values may come before it.

How the values were obtained:
[1] = Example 7: Phase III clinical study, plasma pharmacokinetics of TP-1; assay type: in vivo, human; conditions: for AUC / Cmax / Tmax: human, plasma; for Tmax: read-out: Tmax, Median (range)
From the text: This study consisted of four visits to the study site. After the initial screening visit (Visit 1), subjects who met all study selection criteria were required to undergo a single-blind placebo run-in period for 7-10 days. Following the completion of the run-in period, eligible subjects meeting the randomization criteria were enrolled and randomized to one of the four treatment arms. Subjects were dispensed medication as per the randomization list. Randomized subjects were required to undergo a 2 week (14 days) treatment period as per the protocol to assess the efficacy and safety of the assigned treatment. Subjects were instructed to record the symptom scores in a symptom assessment diary. They were also scheduled to have at least two blood samples for PK assessment during the treatment period.
• Plasma PK: Maximum plasma concentration (Cmax), time to attain Cmax (Tmax), and area under the plasma concentration-time curve over the dosing interval (AUCtau) will be estimated for mometasone furoate and olopatadine on Day 1 and Day 8 based on the pharmacokinetic analysis set (PKAS).
The pharmacokinetics (PK) of TP-1 were measured for a subset of patients in the phase III clinical study on day 1 and day 8 (steady state).

[2] = Example 11: single-dose cross-over study, pharmacokinetics of mometasone furoate; assay type: in vivo, human
Description: The pharmacokinetics of mometasone furoate in a fixed dose combination of mometasone furoate and olopatadine hydrochloride nasal spray was evaluated in a clinical trial. The clinical trial was a randomized, single-center, single-dose, open-label, three-period, six-sequence, cross-over study to evaluate three treatments administered by nasal spray. The three treatments included a combination of mometasone furoate and olopatadine hydrochloride nasal spray, mometasone furoate nasal spray and Nasonex® nasal spray.
(§1) The study consisted of a screening visit, 3 single-dose treatment periods with washout periods of 7 to 14 days between dosing in each treatment period, an early withdrawal visit if applicable, and a follow-up telephone call (or visit) 1 to 7 days after completing the third treatment period.
(§2) A total of 30 subjects were randomized to 1 of 6 treatment sequences and received at least 1 dose of study drug. All 30 subjects were included in the safety analysis set and the pharmacokinetic subset. All but 2 subjects completed the study per protocol.

[3] = human, in vivo
Description: The pharmacokinetics of olopatadine in a fixed dose combination of mometasone furoate and olopatadine hydrochloride nasal spray was evaluated in a clinical trial. The clinical trial was a randomized, single-center, single-dose, open-label, three-period, six-sequence, cross-over study to evaluate three treatments administered as a nasal spray. The three treatments included a combination of mometasone furoate and olopatadine hydrochloride nasal spray, olopatadine hydrochloride nasal spray and PATANASE® nasal spray.
as §1, §2

[4] = patients receiving TP-1, Day 8 (steady state)
[5] = human, in vivo, inhaled or intranasal, mometasone furoate in fixed dose combination nasal spray, single dose

AUC ([1]; mometasone furoate in plasma, patients receiving TP-1, Day 1, read-out: AUCtau, Geo Mean (Geo CV%)): 0.0262 ng·h/mL | AUC ([1]; mometasone furoate in plasma, patients receiving TP-1, Day 1, read-out: AUCtau, Mean (SD)): 0.0286 ng·h/mL | AUC ([1]; mometasone furoate in plasma, patients receiving TP-1, Day 1, read-out: AUCtau, Min-Max): 0.0121 to 0.0725 ng·h/mL | Cmax ([1]; mometasone furoate in plasma, patients receiving TP-1, Day 1, read-out: Cmax, Geo Mean (Geo CV%)): 0.00627 ng/mL | Cmax ([1]; mometasone furoate in plasma, patients receiving TP-1, Day 1, read-out: Cmax, Mean (SD)): 0.00678 ng/mL | Cmax ([1]; mometasone furoate in plasma, patients receiving TP-1, Day 1, read-out: Cmax, Min-Max): 0.00267 to 0.0128 ng/mL | AUC ([1]; mometasone furoate in plasma, patients receiving TP-1, Day 8 (steady state), read-out: AUCtau, Geo Mean (Geo CV%)): 0.0527 ng·h/mL | AUC ([1]; mometasone furoate in plasma, patients receiving TP-1, Day 8 (steady state), read-out: AUCtau, Mean (SD)): 0.0584 ng·h/mL | AUC ([1]; mometasone furoate in plasma, patients receiving TP-1, Day 8 (steady state), read-out: AUCtau, Min-Max): 0.0257 to 0.124 ng·h/mL | Cmax ([1]; mometasone furoate in plasma, patients receiving TP-1, Day 8 (steady state), read-out: Cmax, Geo Mean (Geo CV%)): 0.00917 ng/mL | Cmax ([1]; mometasone furoate in plasma, patients receiving TP-1, Day 8 (steady state), read-out: Cmax, Mean (SD)): 0.00992 ng/mL | Cmax ([1]; mometasone furoate in plasma, patients receiving TP-1, Day 8 (steady state), read-out: Cmax, Min-Max): 0.00358 to 0.0161 ng/mL | Tmax ([1]; patients receiving TP-1, Day 1): 1 h | Tmax, Median (range) [1, 4]: 1.00 (0.25-2) hour | AUC(0-t) [2, 5]: 0.085 ng·h/mL | Cmax [2, 5]: 0.0108 ng/mL | Tmax [2, 5]: 1 h | AUC(0-inf) ([2]; human, in vivo, inhaled or intranasal, mometasone furoate in fixed dose combination nasal spray, single dose, read-out: AUC(0-infinity)): 0.104 ng·h/mL | Quantifiable concentrations observed until the last time point ([2]; single dose nasal spray): 72 h
SMILES: C[C@@H]1C[C@H]2[C@@H]3CCC4=CC(=O)C=C[C@]4(C)[C@@]3(Cl)[C@@H](O)C[C@]2(C)[C@@]1(OC(=O)c1ccco1)C(=O)CCl [Mometasone furoate]

Quantifiable concentrations observed until the last time point [3]: 48 h | AUC ([1]; olopatadine in plasma, patients receiving TP-1, Day 1, read-out: AUCtau, Geo Mean (Geo CV%)): 72.9 ng·h/mL | AUC ([1]; olopatadine in plasma, patients receiving TP-1, Day 1, read-out: AUCtau, Mean (SD)): 75.5 ng·h/mL | AUC ([1]; olopatadine in plasma, patients receiving TP-1, Day 1, read-out: AUCtau, Min-Max): 39.3 to 117 ng·h/mL | Cmax ([1]; olopatadine in plasma, patients receiving TP-1, Day 1, read-out: Cmax, Geo Mean (Geo CV%)): 18.8 ng/mL | Cmax ([1]; olopatadine in plasma, patients receiving TP-1, Day 1, read-out: Cmax, Mean (SD)): 19.8 ng/mL | Cmax ([1]; olopatadine in plasma, patients receiving TP-1, Day 1, read-out: Cmax, Min-Max): 8.7 to 31.6 ng/mL | AUC ([1]; olopatadine in plasma, patients receiving TP-1, Day 8 (steady state), read-out: AUCtau, Geo Mean (Geo CV%)): 85.7 ng·h/mL | AUC ([1]; olopatadine in plasma, patients receiving TP-1, Day 8 (steady state), read-out: AUCtau, Mean (SD)): 88.8 ng·h/mL | AUC ([1]; olopatadine in plasma, patients receiving TP-1, Day 8 (steady state), read-out: AUCtau, Min-Max): 53.4 to 138 ng·h/mL | Cmax ([1]; olopatadine in plasma, patients receiving TP-1, Day 8 (steady state), read-out: Cmax, Geo Mean (Geo CV%)): 18.7 ng/mL | Cmax ([1]; olopatadine in plasma, patients receiving TP-1, Day 8 (steady state), read-out: Cmax, Mean (SD)): 19.8 ng/mL | Cmax ([1]; olopatadine in plasma, patients receiving TP-1, Day 8 (steady state), read-out: Cmax, Min-Max): 9.67 to 37.3 ng/mL | Tmax ([1]; patients receiving TP-1, Day 1): 1 h | Tmax, Median (range) [1, 4]: 1.00 (0.25-2) hour
SMILES: CN(C)CC/C=C1/c2ccccc2COc2ccc(CC(=O)O)cc21 [Olopatadine]
